Experimental data: patent US7253286B2, “Nitrogen-containing aromatic derivatives” (Eisai Co., Ltd, priority 2000, dated 2007)

The molecules below were run on Human Umbilical Vein Endothelial Cells (HUVECs) (assay: Inhibition against sandwich tube formation by vascular endothelial cells in response to stimulation by VEGF). Conditions: HUVEC in collagen gel sandwich, stimulation by VEGF (25 ng/ml VEGF and 10 ng/ml EGF), 4th day, total tube length, read-out: IC50 (concentration required for 50% inhibition of tube formation).
Format: cell-based
Summary of the method: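 HUVECs were sandwiched between collagen gel layers in serum-free medium with 25 ng/ml VEGF plus 10 ng/ml EGF, with test substance added above the gel at 37 °C. On day 4 tubes were MTT-stained and total tube length measured by image analysis. IC50 is the concentration halving tube length relative to no-compound wells.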

`NC(=O)c1cc2c(Oc3ccc(NC(=O)NC4CC4)c(F)c3)ccnc2cc1OCCCN1CCOCC1` [Example 374, 4-(4-(Cyclopropylaminocarbonyl)amino-3-fluorophenoxy)-7-(3-(4-morpholino)propoxy)-6-quinolinecarboxamide] and `COc1cc2nccc(Oc3ccc(NC(=O)NC4CC4)c(Cl)c3)c2cc1C(=O)NCCS(C)(=O)=O` [Example 404, N6-(2-(Methylsulfonyl)ethyl)-4-(3-chloro-4-(((cyclopropylamino)carbonyl)amino)phenoxy)-7-methoxy-6-quinolinecarboxamide] are within 1.5-fold of each other in IC50: 3 nM for the first, 2.8 nM for the second.

Compared with `N#CCCCOc1cc2nccc(Oc3ccc(NC(=O)Nc4ccc(F)cc4F)c(F)c3)c2cc1C#N` [Example 55, N-(4-(6-Cyano-7-(3-cyanopropoxy)-4-quinolyl)oxy-2-fluorophenyl)-N′-(2,4-difluorophenyl)urea], `COCCOc1cc2nccc(Oc3ccc(NC(=O)Nc4ccc(F)cc4)c(F)c3)c2cc1C#N` [Example 100, N-(4-(6-Cyano-7-(2-methoxyethoxy)-4-quinolyl)oxy-2-fluorophenyl)-N′-(4-fluorophenyl)urea] is 5.6-fold lower in IC50: 35 nM for the first, 6.3 nM for the second.

`CCNC(=O)n1ccc2cc(Oc3ccnc4cc(OC)c(C(N)=O)cc34)ccc21` [Example 316, 6-Carbamoyl-4-(1-ethylcarbamoyl-1H-indol-5-yloxy)-7-methoxyquinoline] gave an IC50 of 1 nM.
